In patent US20040127492A1 (Pharmacia Corporation, priority 2002, published 2004):
Where two headings read alike, the source gives them in different places.

How the values were obtained:
MK-3 = MK-3 (Homo sapiens, UniProt Q16644); experiment: MK-3 inhibition IC50 (similar method to MK-2, with appropriate modifications); type: biochemical; conditions: read-out: MK-3 Avg. IC50
Experimental: In practice, the selectivity of a cyclic pyrazole MK-2 inhibitor varies depending upon the condition under which the test is performed and on the inhibitors being tested. However, for the purposes of this specification, the selectivity of a cyclic pyrazole MK-2 inhibitor inhibitor can be measured as a ratio of the in vitro or in vivo IC50 value for inhibition of MK-3, divided by the IC50 value for inhibition of MK-2 (IC50 MK-3/IC50 MK-2). […] The MK-2 or MK-3 inhibiting activity of any of the compounds described herein can be determined by any one of several methods that are well known to those having skill in the art of enzyme activity testing. […] A similar method, with appropriate modifications, Can be used to measure MK-3 inhibitory activity. In addition, the efficacy of one of the present MK-2 inhibiting compounds in therapeutic applications can be determined by testing for inhibition of TNFα production in cell culture and in animal model assays.

MAPKAPK2 (MK-2) = MAPKAPK2 (MK-2) (Homo sapiens, UniProt P49137); experiment: Determination of MK-2 IC50 (HSP-peptide phosphorylation, anion exchange resin capture assay); type: biochemical
MAPKAPK2 (MK-2), sequence (P49137 whole entry, species assumed): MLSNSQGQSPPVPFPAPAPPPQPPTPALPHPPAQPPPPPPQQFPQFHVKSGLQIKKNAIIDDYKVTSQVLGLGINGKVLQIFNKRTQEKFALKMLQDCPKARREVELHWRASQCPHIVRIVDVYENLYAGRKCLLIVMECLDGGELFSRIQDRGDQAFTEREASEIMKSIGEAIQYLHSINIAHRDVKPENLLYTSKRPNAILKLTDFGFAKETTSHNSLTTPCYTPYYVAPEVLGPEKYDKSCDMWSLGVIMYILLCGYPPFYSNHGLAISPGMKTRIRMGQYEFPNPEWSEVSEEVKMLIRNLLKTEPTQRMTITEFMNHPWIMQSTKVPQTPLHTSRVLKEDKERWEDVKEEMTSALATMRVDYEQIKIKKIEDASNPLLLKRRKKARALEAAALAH
Method in brief: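 Radiometric peptide assay: 15 nM p38α-activated MK-2, HSP-peptide, 0.03 mM ATP with [γ33P]ATP, 2% DMSO, pH 7.5, 30° C for 30 min; unreacted ATP removed on AG 1×8 resin before counting. Six concentrations in ten-fold steps, each in triplicate, gave IC50 in μM.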

[1] = Table 5, other cyclic pyrazole MK-2 inhibiting compounds
[2] = Table 5, other cyclic pyrazole MK-2 inhibiting compounds, read-out: MK-2 Avg. IC50
[3] = Table 2, pyrazolylpyrazole MK-2 inhibitors
[4] = Table 2, pyrazolylpyrazole MK-2 inhibitors, read-out: MK-2 Avg. IC50
[5] = Table 1, phenoxypyrazole MK-2 inhibitors
[6] = Table 1, phenoxypyrazole MK-2 inhibitors, read-out: MK-2 Avg, IC50

MK-3, sequence (Q16644 whole entry, species assumed): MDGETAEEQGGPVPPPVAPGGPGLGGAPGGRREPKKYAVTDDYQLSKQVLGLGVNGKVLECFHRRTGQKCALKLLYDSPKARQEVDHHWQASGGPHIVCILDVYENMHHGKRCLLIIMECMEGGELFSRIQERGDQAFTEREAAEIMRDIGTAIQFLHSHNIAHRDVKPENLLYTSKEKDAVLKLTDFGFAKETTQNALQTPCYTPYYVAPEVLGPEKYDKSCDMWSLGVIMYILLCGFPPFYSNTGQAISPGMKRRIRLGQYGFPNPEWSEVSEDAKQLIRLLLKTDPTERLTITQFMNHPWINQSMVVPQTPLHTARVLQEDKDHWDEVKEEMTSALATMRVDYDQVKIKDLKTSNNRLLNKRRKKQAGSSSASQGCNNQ

Compound | IC50 (MK-3) | IC50 (MAPKAPK2 (MK-2); read-out: MK-2 Avg. IC50) | IC50 (MK-3; [5]) | IC50 (MAPKAPK2 (MK-2); [6]) | also measured
N#Cc1cccc(-c2cc3c(cn2)CCc2c-3nn(CCCN)c2C(=O)O)c1 [Example 8] | 0.226 µM | 0.0302 µM | – | – | –
O=C1NCCn2nc3c(c21)CCc1cnc(/C=C/c2ccc(F)cc2)cc1-3 [Example 8] | – | – | – | – | IC50 (MK-3; [1]): > 20 µM; IC50 (MAPKAPK2 (MK-2); [2]): 0.749 µM
CCOC(=O)c1c2c(nn1CCCNCCc1ccc(Br)cc1)-c1cn[nH]c1CC2 [Example 9] | – | – | – | – | IC50 (MK-3; [3]): 68.1 µM; IC50 (MAPKAPK2 (MK-2); [4]): 8.54 µM
NCCCn1nc2c(c1C(=O)O)CCc1cc(O)c(-c3ccc([N+](=O)[O-])cc3)cc1-2 [Example 9] | – | – | 104 µM | 4.91 µM | –
O=C1NC(CO)Cn2nc3c(c21)CCc1cnc(-c2cnc4ccccc4c2)cc1-3 (stereo not shown) [Example 9] | 5.68 µM | 0.0313 µM | – | – | –
O=C1NCCn2nc3c(c21)CCc1cnc(/C=C/c2ccc(C(F)(F)F)cc2)cc1-3 [Example 9] | – | – | – | – | IC50 (MK-3; [1]): > 20 µM; IC50 (MAPKAPK2 (MK-2); [2]): 2.26 µM
COc1ccc(-c2cc3c(cn2)CCc2c-3nn(CCCN)c2C(=O)O)cc1 [Example 10] | 0.995 µM | 0.0371 µM | – | – | –
N#Cc1cccc(-c2cc3c(cc2O)CCc2c-3nn(CCCN)c2C(=O)O)c1 [Example 10] | – | – | 168 µM | 5.35 µM | –
NCCCCn1nc2c(c1C(=O)O)CCc1[nH]ncc1-2 [Example 10] | – | – | – | – | IC50 (MK-3; [3]): ≥ 200 µM; IC50 (MAPKAPK2 (MK-2); [4]): 10.1 µM
O=C1NCCn2nc3c(c21)CCc1cnc(/C=C/c2cccc(Cl)c2)cc1-3 [Example 10] | – | – | – | – | IC50 (MK-3; [1]): > 20 µM; IC50 (MAPKAPK2 (MK-2); [2]): 2.92 µM
CS(=O)(=O)c1cccc(-c2cc3c(cn2)CCc2c-3nn(CCCN)c2C(=O)O)c1 [Example 11] | 0.453 µM | 0.0391 µM | – | – | –
CSc1n[nH]c2c1-c1nn3c(c1CC2)C(=O)NCCC3 [Example 11] | – | – | – | – | IC50 (MK-3; [3]): ≥ 200 µM; IC50 (MAPKAPK2 (MK-2); [4]): 10.5 µM
NCCCn1nc2c(c1C(=O)O)CCc1cc(O)c(-c3cccc(C(F)(F)F)c3)cc1-2 [Example 11] | – | – | 71.7 µM | 7.53 µM | –
O=C1NCCn2nc3c(c21)CCc1cnc(/C=C/c2ccccc2F)cc1-3 [Example 11] | – | – | – | – | IC50 (MK-3; [1]): > 200 µM; IC50 (MAPKAPK2 (MK-2); [2]): 4.46 µM
C=CCSc1n[nH]c2c1-c1nn3c(c1CC2)C(=O)NCCC3 [Example 12] | – | – | – | – | IC50 (MK-3; [3]): 55.6 µM; IC50 (MAPKAPK2 (MK-2); [4]): 10.8 µM
COc1ccc(/C=C/c2cc3c(cn2)CCc2c-3nn3c2C(=O)NCC3)cc1 [Example 12] | – | – | – | – | IC50 (MK-3; [1]): > 200 µM; IC50 (MAPKAPK2 (MK-2); [2]): 4.76 µM
NCCCn1nc2c(c1C(=O)O)CCc1cc(O)c(CCC(F)(F)F)cc1-2 [Example 12] | – | – | 149 µM | 8.11 µM | –
NCCCn1nc2c(c1C(=O)O)CCc1cnc(-c3cccc(C(F)(F)F)c3)cc1-2 [Example 12] | 0.29 µM | 0.0433 µM | – | – | –
NCCCn1nc2c(c1C(=O)O)CCc1cc(O)c(-c3cccc(Cl)c3)cc1-2 [Example 13] | – | – | 121 µM | 10.5 µM | –
O=C1NCCCn2nc3c(c21)CCc1[nH]ncc1-3 [Example 13] | – | – | – | – | IC50 (MK-3; [3]): 144 µM; IC50 (MAPKAPK2 (MK-2); [4]): 19.6 µM
O=C1NCCn2nc3c(c21)CCc1cnc(-n2ccnc2)cc1-3 [Example 13] | 5.34 µM | 0.0523 µM | – | – | –
CC1Cc2c(nn(CCCN)c2C(=O)O)-c2ccc(O)cc21 (stereo not shown) [Example 14] | – | – | > 200 µM | 10.7 µM | –
COc1cccc(-c2cc3c(cn2)CCc2c-3nn(CCCN)c2C(=O)O)c1 [Example 14] | 0.875 µM | 0.0558 µM | – | – | –
O=C1NCCn2nc3c(c21)CCc1[nH]ncc1-3 [Example 14] | – | – | – | – | IC50 (MK-3; [3]): 137 µM; IC50 (MAPKAPK2 (MK-2); [4]): 20 µM
C=CCn1nc2c(c1C(=O)O)CCc1[nH]ncc1-2 [Example 15] | – | – | – | – | IC50 (MK-3; [3]): 134 µM; IC50 (MAPKAPK2 (MK-2); [4]): 22.7 µM
NCCCn1nc2c(c1C(=O)O)CCc1cc(O)c(-c3ccc(Cl)cc3)cc1-2 [Example 15] | – | – | 109 µM | 11 µM | –
NCCCn1nc2c(c1C(=O)O)CCc1cnc(-c3ccc(C(F)(F)F)cc3)cc1-2 [Example 15] | 0.209 µM | 0.0567 µM | – | – | –

Compound | IC50 (MK-3) | IC50 (MAPKAPK2 (MK-2); read-out: MK-2 Avg. IC50) | IC50 (MK-3; [5]) | IC50 (MAPKAPK2 (MK-2); [6]) | also measured
CS(=O)(=O)c1cccc(-c2cc3c(cc2O)CCc2c-3nn(CCCN)c2C(=O)O)c1 [Example 16] | – | – | > 200 µM | 12.9 µM | –
NCCCn1nc2c(c1C(=O)O)CCc1cnc(Nc3ccccc3)cc1-2 [Example 16] | 1.15 µM | 0.074 µM | – | – | –
O=C1NCCCn2nc3c(c21)CCc1[nH]nc(SCc2ccccc2)c1-3 [Example 16] | – | – | – | – | IC50 (MK-3; [3]): 56 µM; IC50 (MAPKAPK2 (MK-2); [4]): 23.8 µM
NC(=O)c1[nH]nc2c1CCc1[nH]ncc1-2 [Example 17] | – | – | – | – | IC50 (MK-3; [3]): 129 µM; IC50 (MAPKAPK2 (MK-2); [4]): 28.4 µM
NCCCn1nc2c(c1C(=O)O)CCc1cc(O)c(-c3ccc(F)c(F)c3)cc1-2 [Example 17] | – | – | 167 µM | 14.2 µM | –
NCCCn1nc2c(c1C(=O)O)CCc1cnc(-c3ccc(F)c(F)c3)cc1-2 [Example 17] | 1.73 µM | 0.0786 µM | – | – | –
O=C(O)c1ccc(-c2ccc(CCNCCCn3nc4c(c3C(=O)O)CCc3cnccc3-4)cc2)cc1 [Example 18] | 2.18 µM | 0.0796 µM | – | – | –
NCCCn1nc2c(c1C(=O)O)CCc1cc(O)c(-c3cccc(N)c3)cc1-2 [Example 19] | – | – | 166 µM | 17.2 µM | –
O=C(O)c1nn(C2CCN(C(=O)OCc3ccccc3)CC2)c2c1CCc1c-2cnn1C(c1ccccc1)(c1ccccc1)c1ccccc1 [Example 19] | – | – | – | – | IC50 (MK-3; [3]): ≥ 200 µM; IC50 (MAPKAPK2 (MK-2); [4]): 46.5 µM
O=C1NCCn2nc3c(c21)CCc1cnc(-c2ccc(O)cc2)cc1-3 [Example 19] | 0.861 µM | 0.0867 µM | – | – | –
CCOC(=O)c1c2c(nn1CCCN)-c1c(SC)n[nH]c1CC2 [Example 20] | – | – | – | – | IC50 (MK-3; [3]): ≥ 200 µM; IC50 (MAPKAPK2 (MK-2); [4]): 55.3 µM
NC(=O)c1[nH]nc2c1CCc1c-2ccc(O)c1Br [Example 20] | – | – | > 200 µM | 17.6 µM | –
CNc1ccc(-c2cc3c(cc2O)CCc2c-3nn(CCCN)c2C(=O)O)cc1 [Example 21] | – | – | > 200 µM | 17.7 µM | –
O=C(O)c1c2c(nn1C1CCNCC1)-c1cn[nH]c1CC2 [Example 21] | – | – | – | – | IC50 (MK-3; [3]): ≥ 200 µM; IC50 (MAPKAPK2 (MK-2); [4]): 60.4 µM
O=C(O)c1c2c(nn1CCCNCCc1ccc(-c3cccc(C(F)(F)F)c3)cc1)-c1ccncc1CC2 [Example 21] | 10.4 µM | 0.103 µM | – | – | –
CC(C)(C)c1ccc(-c2cc3c(cc2O)CCc2c-3nn(CCCN)c2C(=O)O)cc1 [Example 22] | – | – | 120 µM | 18.8 µM | –
CC(C)(C)c1ccc(-c2cc3c(cn2)CCc2c-3nn(CCCN)c2C(=O)O)cc1 [Example 22] | 0.426 µM | 0.112 µM | – | – | –
O=C(O)c1nn(CC(F)(F)F)c2c1CCc1c-2cnn1C(c1ccccc1)(c1ccccc1)c1ccccc1 [Example 22] | – | – | – | – | IC50 (MK-3; [3]): 195 µM; IC50 (MAPKAPK2 (MK-2); [4]): 68.3 µM
NC(=O)c1nn(CCO)c2c1CCc1[nH]ncc1-2 [Example 23] | – | – | – | – | IC50 (MK-3; [3]): ≥ 200 µM; IC50 (MAPKAPK2 (MK-2); [4]): 72.2 µM
NCCCn1nc2c(c1C(=O)O)CCc1cc(O)c(-c3ccncc3)cc1-2 [Example 23] | – | – | > 200 µM | 18.8 µM | –
O=C(O)c1c2c(nn1CCCNCCc1ccc(-c3ccoc3)cc1)-c1ccncc1CC2 [Example 23] | 2.62 µM | 0.126 µM | – | – | –
NC(=O)c1ccc(-n2nc(C(N)=O)c3c2-c2cn[nH]c2CC3)cc1 [Example 24] | – | – | – | – | IC50 (MK-3; [3]): ≥ 200 µM; IC50 (MAPKAPK2 (MK-2); [4]): 78.4 µM
O=C(O)c1[nH]nc2c1CCc1cc(O)ccc1-2 [Example 24] | – | – | > 200 µM | 19.6 µM | –
O=C(O)c1c2c(nn1CCCNCCc1ccc(-c3cccc(Cl)c3)cc1)-c1ccncc1CC2 [Example 24] | 5.85 µM | 0.13 µM | – | – | –
COc1ccc(-c2cc3c(cn2)CCc2c-3nn3c2C(=O)NCCC3)cc1 [Example 25] | 6.52 µM | 0.142 µM | – | – | –
CC(C)(CCc1cc2c(cc1O)CCc1c-2nn(CCCN)c1C(=O)O)CC(=O)O [Example 26] | – | – | 135 µM | 22.2 µM | –
